According to patent publication US20250179077A1, “QUINAZOLINE COMPOUNDS AND USES THEREOF AS INHIBITORS OF MUTANT KRAS PROTEINS” (AMGEN INC., priority 2022, published 2025):
Read-outs that look alike come from different tables or passages of the source.

Columns and labels:
[1] = biological target: His-tagged KRAS G12D protein (Homo sapiens, UniProt P01116, G12D); assay: KRAS G12D TR-FRET Assay; format: binding
Description: KRAS G12D TR-FRET Assay Compounds of interest were prepared in a dose-response titration in DMSO, and 80 nL were added via Labcyte Echo to each well of a 384-well plate (Perkin Elmer 6008280). The His-tagged KRAS G12D protein (Amgen) was diluted to 20 nM in Assay Buffer (20 mM HEPES, pH 7.4, 10 mM MgCl2, 50 mM NaCl, 0.1% BSA, 0.01% Tween-20, 10 μM GDP) and 2 uL was added to the appropriate wells of the 384-well plate. The plate was incubated for 30 minutes at room temperature. Biotinylated KRPep-2d substrate (Amgen) was diluted to 20 nM in Assay Buffer and 2 μL was added to all wells and incubated for 1 hour at room temperature. Detection Reagent (0.4 nM LANCE Eu-W1024 Anti-6×-His (Perkin Elmer AD0401), 5 nM streptavidin-d2 (Cisbio 610SADLA)) was prepared in Assay Buffer, then 4 μL was added to the plate and incubated for 1 hour at room temperature. Plates were read using PerkinElmer EnVision (ex: 320 nm, em1: 665 nm, em2: 615 nm) and em1/em2 data was used to generate curve fits using a 4-parameter logistic model to calculate IC50 values.

[2] = test system: Phosphorylation of ERK1/2 in AsPC-1 cells; assay: Phospho-ERK1/2 MSD Assay; format: cell-based
Description: AsPC-1 (ATCC® CRL-1682™) cells were cultured in RPMI 1640 Medium (ThermoFisher Scientific 11875093) containing 10% fetal bovine serum (ThermoFisher Scientific 16000044) and Ix penicillin-streptomycin-glutamine (ThermoFisher Scientific 10378016). Sixteen hours prior to compound treatment, AsPC-1 cells were seeded in 96-well cell culture plates at a density of 25,000 cells/well and incubated at 37° C., 5% CO2. A compound dose-response titration was diluted in growth media, added to appropriate wells of a cell culture plate, and then incubated at 37° C., 5% CO2 for 2 h. Following compound treatment, cells were washed with ice-cold Dulbecco's phosphate-buffered saline, no Ca^2+ or Mg^2+ (ThermoFisher Scientific 14190144), and then lysed in RIPA buffer (50 mM Tris-HCl pH 7.5, 1% Igepal, 0.5% sodium deoxycholate, 150 mM NaCl, and 0.5% sodium dodecyl sulfate) containing protease inhibitors (Roche 4693132001) and phosphatase inhibitors (Roche 4906837001). Phosphorylation of ERK1/2 in compound-treated lysates was assayed using Phospho-ERK1/2 Whole Cell Lysate kits (Meso Scale Discovery K151DWD) according to the manufacturer's protocol. Assay plates were read on a Meso Scale Discovery Sector Imager 6000, and data were analyzed using a 4-parameter logistic model to calculate IC50 values.

[3] = biological target: GDP-bound KRAS protein (aa 1-169), containing both G12D and C118A amino acid substitutions (Homo sapiens, UniProt P01116, C118A/G12D); assay: KRAS G12D Coupled Nucleotide Exchange Assay; format: biochemical
Description: KRAS G12D Coupled Nucleotide Exchange Assay
Following compound pre-incubation, purified SOS protein (aa 564-1049) and GTP (Roche 10106399001) were added to the assay wells and incubated for an additional 30 min. […] The assay plates were then read on a PerkinElmer EnVision Multilabel Reader, using AlphaScreen® technology, and data were analyzed using a 4-parameter logistic model to calculate IC50 values.

[4] = Homo sapiens, ASPC1, 2 h, read-out: 2 h p-ERK (AsPC-1 cells), IC50, AsPC-1 cells, 2 h compound treatment
[5] = read-out: 2 h p-ERK (AsPC-1 cells), IC50, AsPC-1 cells, 2 h compound treatment

Sequence of GDP-bound KRAS protein (aa 1-169), containing both G12D and C118A amino acid substitutions (P01116 1-169 isoform P01116-2 G12D/C118A): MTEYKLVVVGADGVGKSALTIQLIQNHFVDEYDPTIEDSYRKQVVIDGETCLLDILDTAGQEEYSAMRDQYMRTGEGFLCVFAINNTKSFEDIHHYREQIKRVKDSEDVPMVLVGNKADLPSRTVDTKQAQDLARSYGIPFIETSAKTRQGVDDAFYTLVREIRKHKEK
Sequence of His-tagged KRAS G12D protein (P01116 1-188 isoform P01116-2 G12D): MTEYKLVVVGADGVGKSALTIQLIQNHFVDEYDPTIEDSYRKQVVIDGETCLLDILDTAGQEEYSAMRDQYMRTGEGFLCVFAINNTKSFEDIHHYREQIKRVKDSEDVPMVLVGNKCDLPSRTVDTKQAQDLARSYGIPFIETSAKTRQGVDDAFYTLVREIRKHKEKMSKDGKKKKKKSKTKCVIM

`CCc1c(F)ccc2cc(O)cc(-c3c(F)cc4c(N5C[C@H]6CC[C@@H](C5)O6)nc(OC[C@@]56CCCN5C[C@H](F)C6)nc4c3F)c12` (relative stereo) [Example 18, rel-4-(4-((1R,5S)-8-Oxa-3-azabicyclo[3.2.1]octan-3-yl)-6,8-difluoro-2-(((2R,7aS)-2-fluorotetrahydro-1H-pyrrolizin-7a(5H)-yl)methoxy)quinazolin-7-yl)-5-ethyl-6-fluoronaphthalen-2-ol] showed an IC50 [1] of 46 nM, an IC50 [2, 4] of 2890 nM and an IC50 [3] of 37 nM.

In the case of `C[C@@H]1C[C@@H]1c1c(Cl)cc2[nH]ncc2c1-c1c(F)cc2c(N3CCC[C@]4(CNC(=O)O4)C3)nc(OC[C@@]34CCCN3C[C@H](F)C4)nc2c1F` (relative stereo) [Example 111, (5S)-7-(7-(6-Chloro-5~(2-methylcyclopropyl)-1H-indazol-4-yl)-6,8-difluoro-2-(((2R,7aS)-2-fluorotetrahydro-1H-pyrrolizin-7a(5H)-yl)methoxy)quinazolin-4-yl)-1-oxa-3,7-diazaspiro[4.5]decan-2-one 2,2,2-trifluoroacetate], the IC50 [1] is reported as 5 nM, the IC50 [2, 4] is reported as 55 nM and the IC50 [3] is reported as 4 nM.

In the case of `CCc1c(F)ccc2cc(O)cc(-c3c(F)cc4c(N5CCC[C@@](C)(O)C5)nc(OC[C@@]56CCCN5C[C@H](F)C6)nc4c3F)c12` (single isomer, unassigned) [Example 2], the IC50 [1] is reported as 1 nM, the IC50 [2, 4] is reported as 9 nM and the IC50 [3] is reported as 1 nM.

With `C#Cc1cccc2cc(O)cc(-c3c(F)cc4c(N5CCC[C@@](C)(O)C5)nc(OC[C@@]56CCCN5C[C@H](F)C6)nc4c3F)c12` (single isomer, unassigned) [Example 12] the IC50 [1] was 1 nM, the IC50 [2, 4] was 5 nM and the IC50 [3] was 1 nM.

`C#Cc1c(F)ccc2cc(O)cc(-c3c(F)cc4c(N5CCC[C@@](C)(O)C5)nc(OC[C@@]56CCCN5C[C@H](F)C6)nc4c3F)c12` (single isomer, unassigned) [Example 13] showed an IC50 [1] of 968 nM, an IC50 [2, 5] of 205 nM and an IC50 [3] of 1254 nM.

Work on `C#Cc1c(F)ccc2cc(O)cc(-c3c(F)cc4c(N5CCC[C@@](C)(O)C5)nc(OC[C@@]56CCCN5C[C@H](F)C6)nc4c3F)c12` (single isomer, unassigned) [Example 14] yielded an IC50 [1] of 1 nM, an IC50 [2, 5] of 3 nM and an IC50 [3] of 2 nM.

With `CCc1c(F)ccc2cc(O)cc(-c3ccc4c(N5CC6CC(O)C(C6)C5)nc(OC[C@@]56CCCN5C[C@H](F)C6)nc4c3F)c12` (single isomer, unassigned) [Example 15] the IC50 [1] was 4 nM, the IC50 [2, 4] was 297 nM and the IC50 [3] was 4 nM.

Molecule `C#Cc1cccc2cc(O)cc(-c3ccc4c(N5CC6CC(O)C(C6)C5)nc(OC[C@@]56CCCN5C[C@H](F)C6)nc4c3F)c12` (single isomer, unassigned) [Example 16] has an IC50 [1] of 2 nM, an IC50 [2, 4] of 132 nM and an IC50 [3] of 2 nM.

`C#Cc1c(F)ccc2cc(O)cc(-c3ccc4c(N5CC6CC(O)C(C6)C5)nc(OC[C@@]56CCCN5C[C@H](F)C6)nc4c3F)c12` (single isomer, unassigned) [Example 17] was tested, and the IC50 [1] was 11 nM, the IC50 [2, 4] was 744 nM and the IC50 [3] was 9 nM.

In the case of `CCc1c(F)ccc2cc(O)cc(-c3c(F)cc4c(N5CCCC(O)(C(F)F)C5)nc(OC[C@@]56CCCN5C[C@H](F)C6)nc4c3F)c12` (single isomer, unassigned) [Example 20], the IC50 [1] is reported as 2 nM, the IC50 [2, 4] is reported as 58 nM and the IC50 [3] is reported as 2 nM.

In the case of `CCc1c(F)ccc2cc(O)cc(-c3ccc4c(N5CCCC(O)(C(F)F)C5)nc(OC[C@@]56CCCN5C[C@H](F)C6)nc4c3F)c12` (single isomer, unassigned) [Example 23], the IC50 [1] is reported as 2 nM, the IC50 [2, 4] is reported as 157 nM and the IC50 [3] is reported as 2 nM.

With `CCc1c(F)ccc2cc(O)cc(-c3c(O)cc4c(N5CCC[C@@](C)(O)C5)nc(OC[C@@]56CCCN5C[C@H](F)C6)nc4c3F)c12` (single isomer, unassigned) [Example 27] the IC50 [1] was 1 nM, the IC50 [2, 4] was 18 nM and the IC50 [3] was 1 nM.

`CCc1c(F)ccc2cc(O)cc(-c3ccc4c(N5CCOCC(C)(O)C5)nc(OC[C@@]56CCCN5C[C@H](F)C6)nc4c3F)c12` (single isomer, unassigned) [Example 29] showed an IC50 [1] of 1 nM, an IC50 [2, 4] of 15 nM and an IC50 [3] of 1 nM.

With `CCc1cccc2cc(O)cc(-c3ccc4c(N5CCOCC(C)(O)C5)nc(OC[C@@]56CCCN5C[C@H](F)C6)nc4c3F)c12` (single isomer, unassigned) [Example 30] the IC50 [1] was 3 nM, the IC50 [2, 4] was 12 nM and the IC50 [3] was 3 nM.

Work on `CC1(O)COCCN(c2nc(OC[C@@]34CCCN3C[C@H](F)C4)nc3c(F)c(-c4cc(O)cc5ccc(F)c(F)c45)ccc23)C1` (single isomer, unassigned) [Example 31] yielded an IC50 [1] of 3 nM, an IC50 [2, 4] of 27 nM and an IC50 [3] of 2 nM.

Work on `CC1(O)COCCN(c2nc(OC[C@@]34CCCN3C[C@H](F)C4)nc3c(F)c(-c4cc(O)cc5ccc(F)c(F)c45)c(F)cc23)C1` (single isomer, unassigned) [Example 32] yielded an IC50 [1] of 5 nM, an IC50 [2, 4] of 25 nM and an IC50 [3] of 3 nM.

`CCc1cccc2cc(O)cc(-c3c(F)cc4c(N5CCOCC(C)(O)C5)nc(OC[C@@]56CCCN5C[C@H](F)C6)nc4c3F)c12` (single isomer, unassigned) [Example 33] was tested, and the IC50 [1] was 5 nM, the IC50 [2, 4] was 4 nM and the IC50 [3] was 3 nM.

With `CCc1c(F)ccc2cc(O)cc(-c3c(F)cc4c(N5CCOCC(C)(O)C5)nc(OC[C@@]56CCCN5C[C@H](F)C6)nc4c3F)c12` (single isomer, unassigned) [Example 34] the IC50 [1] was 2 nM, the IC50 [2, 4] was 2 nM and the IC50 [3] was 2 nM.

`CCc1c(F)ccc2cc(O)cc(-c3c(F)cc4c(N5CCCC6(CCO6)C5)nc(OC[C@@]56CCCN5C[C@H](F)C6)nc4c3F)c12` (single isomer, unassigned) [Example 38] showed an IC50 [1] of 12 nM, an IC50 [2, 5] of 425 nM and an IC50 [3] of 12 nM.

In the case of `CCc1c(F)ccc2cc(O)cc(-c3c(F)cc4c(N5CCCC6(CCO6)C5)nc(OC[C@@]56CCCN5C[C@H](F)C6)nc4c3F)c12` (single isomer, unassigned) [Example 39], the IC50 [1] is reported as 3 nM, the IC50 [2, 5] is reported as 10 nM and the IC50 [3] is reported as 4 nM.

For `CCc1c(F)ccc2cc(O)cc(-c3c(F)cc4c(N5CCCC6(CNC(=O)O6)C5)nc(OC[C@@]56CCCN5C[C@H](F)C6)nc4c3F)c12` (single isomer, unassigned) [Example 56], the IC50 [1] was 24 nM, the IC50 [2, 5] was 507 nM and the IC50 [3] was 8 nM.

`CCc1c(F)ccc2cc(O)cc(-c3c(F)cc4c(N5CCCC6(CNC(=O)O6)C5)nc(OC[C@@]56CCCN5C[C@H](F)C6)nc4c3F)c12` (single isomer, unassigned) [Example 59] was tested, and the IC50 [1] was 21 nM, the IC50 [2, 5] was 39 nM and the IC50 [3] was 8 nM.

For `CCc1c(F)ccc2cc(N)cc(-c3c(F)cc4c(N5CCC[C@@](C)(O)C5)nc(OC[C@@]56CCCN5C[C@H](F)C6)nc4c3F)c12` (single isomer, unassigned) [Example 62], the IC50 [1] was 17 nM, the IC50 [2, 4] was 281 nM and the IC50 [3] was 2 nM.

With `C#Cc1c(F)ccc2cccc(-c3c(F)cc4c(N5CCC[C@@](C)(O)C5)nc(OC[C@@]56CCCN5C[C@H](F)C6)nc4c3F)c12` (single isomer, unassigned) [Example 67] the IC50 [1] was 4 nM, the IC50 [2, 4] was 338 nM and the IC50 [3] was 3 nM.

Molecule `CCc1c(F)ccc2cc(N)cc(-c3c(F)cc4c(N5CCOCC(C)(O)C5)nc(OC[C@@]56CCCN5C[C@H](F)C6)nc4c3F)c12` (single isomer, unassigned) [Example 71] has an IC50 [1] of 111 nM, an IC50 [2, 5] of 1400 nM and an IC50 [3] of 14 nM.

`CCc1c(F)ccc2cc(N)cc(-c3c(F)cc4c(N5CCOCC(C)(O)C5)nc(OC[C@@]56CCCN5C[C@H](F)C6)nc4c3F)c12` (single isomer, unassigned) [Example 72] was tested, and the IC50 [1] was 8 nM, the IC50 [2, 5] was 151 nM and the IC50 [3] was 2 nM.
